This note sets out measurements from paper PMC12677843, “Multidisciplinary Preclinical Investigations on Ferrocenyl, Ruthenocenyl, and Benzyl Derivatives of Niridazole as New Drug Candidates against Schistosomiasis” (Chemmedchem, 2025).

In one assay the test system is juvenile S. mansoni. Description: In vitro drug sensitivity assay on juvenile S. mansoni. Format: cell-based, Schistosoma mansoni. To be noted: Schistosoma mansoni; 72 h incubation, 37 °C, 5% CO2. The procedure:
Juvenile worms were gained through cultivation of NTS as previously described. 10 In short, NTS were obtained as described above, then directly after the mechanical transformation process the newly transformed schistosomula were placed in a special culturing medium. The culture medium consists of Panserin 401, w: L-Glutamine, serum free all-round medium (Pan Biotech, Aidenbach, Germany) supplemented with 20 % human serum and 500 U/mL penicillin, […] streptomycin (LuBioScience, Switzerland). 96-well transparent polystyrene flat bottom plates were used for the in vitro growth procedure, with 40 to 60 NTS per well in 100 µL culture medium. The bordering wells of the plate were filled solely with medium to counteract evaporation and to keep the humidity as steady as possible. The plates were incubated for 21 days at 5 % CO2 and at 37 °C, with regular medium changes every 3 to 4 days. After the 21 days culturing period, the schistosomulae developed into juveniles. For the drug sensitivity assay, juvenile worms were incubated over 72 h (5 % CO 2 and 37 °C) with the test compound in the same medium, as used for the culturing process. In a 96-well plate, 250 µL medium containing the test compound and six juvenile worms, ideally of both sexes were placed in each well. All compounds were tested twice independently at 50, 10, 5 and 1 µM in duplicates. The viability of the worms was evaluated microscopically after 24, 48 and 72 h of continuous drug exposure using the same phenotypic screening method as described before. […]

In assay [1] the test system is S. mansoni newly transformed schistosomula (NTS). In words: In vitro evaluation on newly transformed schistosomula (NTS). It counts as cell-based, Schistosoma mansoni. The procedure:
2. Experimental section for biological experiments
Stock solutions of the test compounds
Stock solution of a concentration of 10 mM in pure DMSO (Sigma-Aldrich, Switzerland) were prepared of the 12 compounds, these stock solutions were used for all in vitro evaluations from activity tests in S. mansoni to the cytotoxic determinations in HUH7 hepatocyte-derived carcinoma cells, and in SH-SY5Y neuroblastoma cells.
The solutions were thoroughly vortexed and sonicated to enable a good dissolution of the compounds and homogenous stock solutions.
2.1 In vitro evaluations in S. mansoni
In vitro evaluation on newly transformed schistosomula (NTS)
To obtain newly transformed schistosomula (NTS) the lifecycle of S. mansoni (strain originates from West Africa, Liberia) is maintained at the Swiss Tropical and Public Health Institute (Swiss TPH). As previously described, cercariae are collected from infected Biomphalaria glabrata snails and then mechanically transformed into NTS. 8 After HBSS (Gibco, Waltham MA, USA) washing to get rid of the detached tails, the NTS were kept overnight (min. 12 h, max. 24 h) in culture medium at 37 °C and 5 % CO2 to complete their transformation process, before the drug sensitivity assay was started. The drug assays were performed in the same culture medium consisting of medium M199 (Gibco, Waltham MA, USA) supplemented with 5 % v/v inactivated fetal calf serum (iFCS; Bioconcept AG, Allschwil, Switzerland), 1% antibiotics mixture developed by Mäser et al., 9 and 1 % penicillin 10,000 U/mL, and streptomycin 10 mg/mL solution (Sigma-Aldrich, Buchs, Switzerland). The assay was performed in a 96-well plate, with 30−40 NTS per well in a final volume of 250 μL. NTS incubated in culture medium containing 0.5 % DMSO but no drug served as negative controls.
Microscopic evaluation was performed after 24, 48 and 72 h of incubation of the parasites at 37 °C and 5 % CO 2. Their overall viability was scored from 0 (death) to 3 (full viability) by a phenotypic screening method based on their motility, morphology, […]
and granularity. […]

Turning to `O=C1NCCN1c1ncc([N+](=O)[O-])s1` [Niridazole, niridazole], the EC50 in the assay with juvenile S. mansoni is 1800 nM; in assay [1] (Schistosoma mansoni, 72 h incubation, 37 °C, 5% CO2), > 50000 nM. For the same molecule, the “drug effect at 50 µM on S. mansoni NTS” value in assay [1] (highest tested concentration 50 µM) is on record as “not impaired”.

Broadly, the EC50 is the midpoint of the concentration-response curve. Lower therefore signals an effect from little substance.
